The record followed here is article PMC6934184, “Selective DNA-PKcs inhibition extends the therapeutic index of localized radiotherapy and chemotherapy” (The Journal of Clinical Investigation, 2019).

This experiment has as its target T1, PLK3 (Homo sapiens, UniProt Q9H4B4).
T1 construct: purchased Thermo Fisher Scientific (Life Technologies) SelectScreen
Kind of experiment: SelectScreen Z'LYTE. It counts as biochemical. An outline of the steps:
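Percent values come from Thermo SelectScreen profiling of NU5455, combining activity and binding assays. CSF1R was run in Z'LYTE format at Km app ATP, and CAMK1 in Adapta format with ATP listed at 10.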

T1 sequence (Q9H4B4 whole entry): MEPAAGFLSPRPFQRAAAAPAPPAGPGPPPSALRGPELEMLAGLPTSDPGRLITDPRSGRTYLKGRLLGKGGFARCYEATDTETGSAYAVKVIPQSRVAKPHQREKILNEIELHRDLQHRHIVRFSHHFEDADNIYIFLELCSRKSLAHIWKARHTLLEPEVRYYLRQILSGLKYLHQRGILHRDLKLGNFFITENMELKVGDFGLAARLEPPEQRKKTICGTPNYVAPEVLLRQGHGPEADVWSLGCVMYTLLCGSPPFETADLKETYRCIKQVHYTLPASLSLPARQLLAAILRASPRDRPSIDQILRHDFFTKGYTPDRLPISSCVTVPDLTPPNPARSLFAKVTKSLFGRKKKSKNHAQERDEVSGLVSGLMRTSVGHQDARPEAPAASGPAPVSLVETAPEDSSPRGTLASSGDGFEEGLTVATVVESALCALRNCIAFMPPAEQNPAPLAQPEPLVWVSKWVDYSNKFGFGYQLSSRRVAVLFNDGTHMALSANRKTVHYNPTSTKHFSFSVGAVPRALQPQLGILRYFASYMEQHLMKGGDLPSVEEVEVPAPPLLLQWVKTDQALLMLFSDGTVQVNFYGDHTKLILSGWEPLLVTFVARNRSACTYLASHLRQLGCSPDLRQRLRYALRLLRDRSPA

One may read the inhibition as the drop in the measured response relative to a control, in per cent. As for `CN(C(=O)CN1CCOCC1)c1ccc2sc3c(-c4cccc5c(=O)cc(N6CC7CCC(C6)O7)oc45)cccc3c2c1` [NU5455], the inhibition at 1 µM is -18.2%.
